Measured values taken from ChEMBL document CHEMBL3621085, “Tetrazole regioisomers in the development of nitro group-containing antitubercular agents” (Medchemcomm, 2015).
In brackets after ≈: the same amount, converted by molar mass.

Legend:
[1] = tested on: Mycobacterium tuberculosis; assay: Antimycobacterial activity against Mycobacterium tuberculosis My 331/88 after 14 days by micromethod; format: functional; settings: My 331/88, 336 h
Mycobacterium avium [2] = assay: Antimycobacterial activity against Mycobacterium avium My 330/88 after 14 days by micromethod; format: functional; settings: My 330/88, 336 h
[3] = tested on: Mycobacterium tuberculosis; assay: Antimycobacterial activity against Mycobacterium tuberculosis My 331/88 after 21 days by micromethod; format: functional; settings: My 331/88, 504 h
Mycobacterium avium [4] = assay: Antimycobacterial activity against Mycobacterium avium My 330/88 after 21 days by micromethod; format: functional; settings: My 330/88, 504 h
Mycobacterium kansasii [5] = assay: Antimycobacterial activity against Mycobacterium kansasii My 235/80 after 7 days by micromethod; format: functional; settings: My 235/80, 168 h
Mycobacterium kansasii [6] = assay: Antimycobacterial activity against Mycobacterium kansasii My 235/80 after 14 days by micromethod; format: functional; settings: My 235/80, 336 h
Mycobacterium kansasii [7] = assay: Antimycobacterial activity against Mycobacterium kansasii My 235/80 after 21 days by micromethod; format: functional; settings: My 235/80, 504 h
Mycobacterium kansasii [8] = assay: Antimycobacterial activity against Mycobacterium kansasii 6509/96 after 7 days by micromethod; format: functional; settings: 6509/96, 168 h
Mycobacterium kansasii [9] = assay: Antimycobacterial activity against Mycobacterium kansasii 6509/96 after 14 days by micromethod; format: functional; settings: 6509/96, 336 h
Mycobacterium kansasii [10] = assay: Antimycobacterial activity against Mycobacterium kansasii 6509/96 after 21 days by micromethod; format: functional; settings: 6509/96, 504 h
[11] = Cytotoxicity against CHOK1 cells assessed as viability after 24 hrs by MTT assay; format: cell-based; settings: Cricetulus griseus, CHO-K1, 24 h

O=[N+]([O-])c1ccc(C[Se]c2nnnn2Cc2ccccc2)c([N+](=O)[O-])c1
MIC [1]: 8 µM (≈ 3.35 µg/mL)
MIC (Mycobacterium avium [2]): 250 µM (≈ 105 µg/mL)
MIC [3]: 16 µM (≈ 6.71 µg/mL)
MIC (Mycobacterium avium [4]): 250 µM (≈ 105 µg/mL)
MIC (Mycobacterium kansasii [5]): 16 µM (≈ 6.71 µg/mL)
MIC (Mycobacterium kansasii [6]): 32 µM (≈ 13.4 µg/mL)
MIC (Mycobacterium kansasii [7]): 125 µM (≈ 52.4 µg/mL)
MIC (Mycobacterium kansasii [8]): 16 µM (≈ 6.71 µg/mL)
MIC (Mycobacterium kansasii [9]): 62 µM (≈ 26 µg/mL)
MIC (Mycobacterium kansasii [10]): 125 µM (≈ 52.4 µg/mL)
IC50 [11]: 8.5 µM

O=[N+]([O-])c1cc(Cn2nnc([Se]Cc3ccccc3)n2)cc([N+](=O)[O-])c1
MIC [1]: 8 µM (≈ 3.35 µg/mL)
MIC (Mycobacterium avium [2]): 16 µM (≈ 6.71 µg/mL)
MIC [3]: 8 µM (≈ 3.35 µg/mL)
MIC (Mycobacterium avium [4]): 16 µM (≈ 6.71 µg/mL)
MIC (Mycobacterium kansasii [5]): 8 µM (≈ 3.35 µg/mL)
MIC (Mycobacterium kansasii [6]): 16 µM (≈ 6.71 µg/mL)
MIC (Mycobacterium kansasii [7]): 32 µM (≈ 13.4 µg/mL)
MIC (Mycobacterium kansasii [8]): 16 µM (≈ 6.71 µg/mL)
MIC (Mycobacterium kansasii [9]): 32 µM (≈ 13.4 µg/mL)
MIC (Mycobacterium kansasii [10]): 32 µM (≈ 13.4 µg/mL)
IC50 [11]: 118 µM

COc1ccc(C[Se]c2nnnn2Cc2ccc([N+](=O)[O-])cc2[N+](=O)[O-])cc1
MIC [1]: 4 µM (≈ 1.8 µg/mL)
MIC (Mycobacterium avium [2]): 125 µM (≈ 56.2 µg/mL)
MIC [3]: 8 µM (≈ 3.59 µg/mL)
MIC (Mycobacterium avium [4]): 125 µM (≈ 56.2 µg/mL)
MIC (Mycobacterium kansasii [5]): 16 µM (≈ 7.19 µg/mL)
MIC (Mycobacterium kansasii [6]): 32 µM (≈ 14.4 µg/mL)
MIC (Mycobacterium kansasii [7]): 62 µM (≈ 27.9 µg/mL)
MIC (Mycobacterium kansasii [8]): 4 µM (≈ 1.8 µg/mL)
MIC (Mycobacterium kansasii [9]): 16 µM (≈ 7.19 µg/mL)
MIC (Mycobacterium kansasii [10]): 32 µM (≈ 14.4 µg/mL)

Cn1nnnc1SCc1cc([N+](=O)[O-])cc([N+](=O)[O-])c1
MIC [1]: 4 µM (≈ 1.19 µg/mL)
MIC (Mycobacterium avium [2]): 500 µM (≈ 148 µg/mL)
MIC [3]: 8 µM (≈ 2.37 µg/mL)
MIC (Mycobacterium avium [4]): 1000 µM (≈ 296 µg/mL)
MIC (Mycobacterium kansasii [5]): 4 µM (≈ 1.19 µg/mL)
MIC (Mycobacterium kansasii [6]): 16 µM (≈ 4.74 µg/mL)
MIC (Mycobacterium kansasii [7]): 32 µM (≈ 9.48 µg/mL)
MIC (Mycobacterium kansasii [8]): 16 µM (≈ 4.74 µg/mL)
MIC (Mycobacterium kansasii [9]): 32 µM (≈ 9.48 µg/mL)
MIC (Mycobacterium kansasii [10]): 32 µM (≈ 9.48 µg/mL)

O=[N+]([O-])c1cc(Cn2nnc(SCc3ccccc3)n2)cc([N+](=O)[O-])c1
MIC [1]: 16 µM (≈ 5.96 µg/mL)
MIC (Mycobacterium avium [2]): 125 µM (≈ 46.5 µg/mL)
MIC [3]: 16 µM (≈ 5.96 µg/mL)
MIC (Mycobacterium avium [4]): 125 µM (≈ 46.5 µg/mL)
MIC (Mycobacterium kansasii [5]): 16 µM (≈ 5.96 µg/mL)
MIC (Mycobacterium kansasii [6]): 32 µM (≈ 11.9 µg/mL)
MIC (Mycobacterium kansasii [7]): 32 µM (≈ 11.9 µg/mL)
MIC (Mycobacterium kansasii [8]): 16 µM (≈ 5.96 µg/mL)
MIC (Mycobacterium kansasii [9]): 32 µM (≈ 11.9 µg/mL)
MIC (Mycobacterium kansasii [10]): 32 µM (≈ 11.9 µg/mL)
IC50 [11]: 148 µM

O=[N+]([O-])c1ccc(Cn2nnnc2[Se]Cc2ccccc2)c([N+](=O)[O-])c1
MIC [1]: 1 µM (≈ 0.419 µg/mL)
MIC (Mycobacterium avium [2]): 16 µM (≈ 6.71 µg/mL)
MIC [3]: 2 µM (≈ 0.839 µg/mL)
MIC (Mycobacterium avium [4]): 32 µM (≈ 13.4 µg/mL)
MIC (Mycobacterium kansasii [5]): 32 µM (≈ 13.4 µg/mL)
MIC (Mycobacterium kansasii [6]): 62 µM (≈ 26 µg/mL)
MIC (Mycobacterium kansasii [7]): 62 µM (≈ 26 µg/mL)
MIC (Mycobacterium kansasii [8]): 16 µM (≈ 6.71 µg/mL)
MIC (Mycobacterium kansasii [9]): 62 µM (≈ 26 µg/mL)
MIC (Mycobacterium kansasii [10]): 125 µM (≈ 52.4 µg/mL)

Cn1nnnc1[Se]Cc1ccc([N+](=O)[O-])cc1[N+](=O)[O-]
MIC [1]: 32 µM (≈ 11 µg/mL)
MIC (Mycobacterium avium [2]): 250 µM (≈ 85.8 µg/mL)
MIC [3]: 32 µM (≈ 11 µg/mL)
MIC (Mycobacterium avium [4]): 250 µM (≈ 85.8 µg/mL)
MIC (Mycobacterium kansasii [5]): 62 µM (≈ 21.3 µg/mL)
MIC (Mycobacterium kansasii [6]): 125 µM (≈ 42.9 µg/mL)
MIC (Mycobacterium kansasii [7]): 125 µM (≈ 42.9 µg/mL)
MIC (Mycobacterium kansasii [8]): 62 µM (≈ 21.3 µg/mL)
MIC (Mycobacterium kansasii [9]): 125 µM (≈ 42.9 µg/mL)
MIC (Mycobacterium kansasii [10]): 250 µM (≈ 85.8 µg/mL)

COc1ccc(C[Se]c2nnn(Cc3cc([N+](=O)[O-])cc([N+](=O)[O-])c3)n2)cc1
MIC [1]: 4 µM (≈ 1.8 µg/mL)
MIC (Mycobacterium avium [2]): 16 µM (≈ 7.19 µg/mL)
MIC [3]: 8 µM (≈ 3.59 µg/mL)
MIC (Mycobacterium avium [4]): 32 µM (≈ 14.4 µg/mL)
MIC (Mycobacterium kansasii [5]): 8 µM (≈ 3.59 µg/mL)
MIC (Mycobacterium kansasii [6]): 16 µM (≈ 7.19 µg/mL)
MIC (Mycobacterium kansasii [7]): 16 µM (≈ 7.19 µg/mL)
MIC (Mycobacterium kansasii [8]): 16 µM (≈ 7.19 µg/mL)
MIC (Mycobacterium kansasii [9]): 32 µM (≈ 14.4 µg/mL)
MIC (Mycobacterium kansasii [10]): 32 µM (≈ 14.4 µg/mL)

O=[N+]([O-])c1ccc(C[Se]c2nnn(Cc3ccc([N+](=O)[O-])cc3)n2)cc1
MIC [1]: 62 µM (≈ 26 µg/mL)
MIC (Mycobacterium avium [2]): 250 µM (≈ 105 µg/mL)
MIC [3]: 62 µM (≈ 26 µg/mL)
MIC (Mycobacterium avium [4]): 250 µM (≈ 105 µg/mL)
MIC (Mycobacterium kansasii [5]): 32 µM (≈ 13.4 µg/mL)
MIC (Mycobacterium kansasii [6]): 125 µM (≈ 52.4 µg/mL)
MIC (Mycobacterium kansasii [7]): 125 µM (≈ 52.4 µg/mL)
MIC (Mycobacterium kansasii [8]): 62 µM (≈ 26 µg/mL)
MIC (Mycobacterium kansasii [9]): 125 µM (≈ 52.4 µg/mL)
MIC (Mycobacterium kansasii [10]): 125 µM (≈ 52.4 µg/mL)

O=[N+]([O-])c1ccc(C[Se]c2nnnn2Cc2ccc([N+](=O)[O-])cc2)cc1
MIC [1]: 62 µM (≈ 26 µg/mL)
MIC (Mycobacterium avium [2]): 250 µM (≈ 105 µg/mL)
MIC [3]: 125 µM (≈ 52.4 µg/mL)
MIC (Mycobacterium avium [4]): 250 µM (≈ 105 µg/mL)
MIC (Mycobacterium kansasii [5]): 62 µM (≈ 26 µg/mL)
MIC (Mycobacterium kansasii [6]): 125 µM (≈ 52.4 µg/mL)
MIC (Mycobacterium kansasii [7]): 125 µM (≈ 52.4 µg/mL)
MIC (Mycobacterium kansasii [8]): 32 µM (≈ 13.4 µg/mL)
MIC (Mycobacterium kansasii [9]): 62 µM (≈ 26 µg/mL)
MIC (Mycobacterium kansasii [10]): 62 µM (≈ 26 µg/mL)

O=[N+]([O-])c1ccc(CSc2nnnn2Cc2ccc([N+](=O)[O-])cc2)cc1
MIC [1]: 500 µM (≈ 186 µg/mL)
MIC (Mycobacterium avium [2]): 250 µM (≈ 93.1 µg/mL)
MIC [3]: 500 µM (≈ 186 µg/mL)
MIC (Mycobacterium avium [4]): 250 µM (≈ 93.1 µg/mL)
MIC (Mycobacterium kansasii [5]): 250 µM (≈ 93.1 µg/mL)
MIC (Mycobacterium kansasii [6]): 250 µM (≈ 93.1 µg/mL)
MIC (Mycobacterium kansasii [7]): 250 µM (≈ 93.1 µg/mL)
MIC (Mycobacterium kansasii [8]): 250 µM (≈ 93.1 µg/mL)
MIC (Mycobacterium kansasii [9]): 250 µM (≈ 93.1 µg/mL)
MIC (Mycobacterium kansasii [10]): 250 µM (≈ 93.1 µg/mL)

O=[N+]([O-])c1ccc(Cn2nnc([Se]Cc3ccccc3)n2)c([N+](=O)[O-])c1
MIC [1]: 1 µM (≈ 0.419 µg/mL)
MIC (Mycobacterium avium [2]): 4 µM (≈ 1.68 µg/mL)
MIC [3]: 1 µM (≈ 0.419 µg/mL)
MIC (Mycobacterium avium [4]): 8 µM (≈ 3.35 µg/mL)
MIC (Mycobacterium kansasii [5]): 8 µM (≈ 3.35 µg/mL)
MIC (Mycobacterium kansasii [6]): 16 µM (≈ 6.71 µg/mL)
MIC (Mycobacterium kansasii [7]): 16 µM (≈ 6.71 µg/mL)
MIC (Mycobacterium kansasii [8]): 8 µM (≈ 3.35 µg/mL)
MIC (Mycobacterium kansasii [9]): 16 µM (≈ 6.71 µg/mL)
MIC (Mycobacterium kansasii [10]): 32 µM (≈ 13.4 µg/mL)

O=[N+]([O-])c1ccc(CSc2nnn(Cc3ccccc3)n2)c([N+](=O)[O-])c1
MIC [1]: 4 µM (≈ 1.49 µg/mL)
MIC (Mycobacterium avium [2]): 32 µM (≈ 11.9 µg/mL)
MIC [3]: 4 µM (≈ 1.49 µg/mL)
MIC (Mycobacterium avium [4]): 62 µM (≈ 23.1 µg/mL)
MIC (Mycobacterium kansasii [5]): 16 µM (≈ 5.96 µg/mL)
MIC (Mycobacterium kansasii [6]): 32 µM (≈ 11.9 µg/mL)
MIC (Mycobacterium kansasii [7]): 62 µM (≈ 23.1 µg/mL)
MIC (Mycobacterium kansasii [8]): 8 µM (≈ 2.98 µg/mL)
MIC (Mycobacterium kansasii [9]): 16 µM (≈ 5.96 µg/mL)
MIC (Mycobacterium kansasii [10]): 32 µM (≈ 11.9 µg/mL)
IC50 [11]: 21 µM

O=[N+]([O-])c1ccc(CSc2nnnn2Cc2ccccc2)c([N+](=O)[O-])c1
MIC [1]: 8 µM (≈ 2.98 µg/mL)
MIC (Mycobacterium avium [2]): 250 µM (≈ 93.1 µg/mL)
MIC [3]: 8 µM (≈ 2.98 µg/mL)
MIC (Mycobacterium avium [4]): 250 µM (≈ 93.1 µg/mL)
MIC (Mycobacterium kansasii [5]): 8 µM (≈ 2.98 µg/mL)
MIC (Mycobacterium kansasii [6]): 32 µM (≈ 11.9 µg/mL)
MIC (Mycobacterium kansasii [7]): 62 µM (≈ 23.1 µg/mL)
MIC (Mycobacterium kansasii [8]): 16 µM (≈ 5.96 µg/mL)
MIC (Mycobacterium kansasii [9]): 32 µM (≈ 11.9 µg/mL)
MIC (Mycobacterium kansasii [10]): 62 µM (≈ 23.1 µg/mL)
